System: MDA-MB-231 multicell spheroids, viability
Assay: Anticancer human tumor MDA-MB-231 cell line growth inhibition [PI3K];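 note: spheroids exposed to agents for seven days before reading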;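 for viability, T/C: percent of vehicle control luminescence with DMSO treated spheroids as 100%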
Conditions: for IC50: curve of first compound; for viability, T/C: stronger effect = lower value; active = viability on the fitted dose curve at most 10% of control; inactive = the rest
Procedure, shortened: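 Spheroid viability read-out. Co-cultures contained the tumor line plus HUVEC and human MSCs. Each agent was paired with a PI3K inhibitor (inavolisib, alpelisib, duvelisib, copanlisib) across half-log dilutions starting at clinical Cmax, or at 10 microM when Cmax was unknown.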

[1] = second compound 0.0316 µM, first compound 0.0316 µM
[2] = second compound 0.0316 µM, first compound 0.1 µM
[3] = second compound 0.0316 µM, first compound 0.316 µM
[4] = second compound 0.0316 µM, first compound 1 µM
[5] = second compound 0.0316 µM, first compound 3.16 µM
[6] = second compound 0.0316 µM, first compound 10 µM
[7] = second compound 0.1 µM, first compound 0.0316 µM
[8] = second compound 0.1 µM, first compound 0.1 µM
[9] = second compound 0.1 µM, first compound 0.316 µM
[10] = second compound 0.1 µM, first compound 1 µM
[11] = second compound 0.1 µM, first compound 3.16 µM
[12] = second compound 0.1 µM, first compound 10 µM
[13] = second compound 0.316 µM, first compound 0.0316 µM
[14] = second compound 0.316 µM, first compound 0.1 µM
[15] = second compound 0.316 µM, first compound 0.316 µM
[16] = second compound 0.316 µM, first compound 1 µM
[17] = second compound 0.316 µM, first compound 3.16 µM
[18] = second compound 0.316 µM, first compound 10 µM
[19] = second compound 1 µM, first compound 0.0316 µM
[20] = second compound 1 µM, first compound 0.1 µM
[21] = second compound 1 µM, first compound 0.316 µM
[22] = second compound 1 µM, first compound 1 µM
[23] = second compound 1 µM, first compound 3.16 µM
[24] = second compound 1 µM, first compound 10 µM
[25] = second compound 3.16 µM, first compound 0.0316 µM
[26] = second compound 3.16 µM, first compound 0.1 µM
[27] = second compound 3.16 µM, first compound 0.316 µM
[28] = second compound 3.16 µM, first compound 1 µM
[29] = second compound 3.16 µM, first compound 3.16 µM
[30] = second compound 3.16 µM, first compound 10 µM
[31] = second compound 10 µM, first compound 0.0316 µM
[32] = second compound 10 µM, first compound 0.1 µM
[33] = second compound 10 µM, first compound 0.316 µM
[34] = second compound 10 µM, first compound 1 µM
[35] = second compound 10 µM, first compound 3.16 µM
[36] = second compound 10 µM, first compound 10 µM

CC1(C)CCC(CN2CCN(c3ccc(C(=O)NS(=O)(=O)c4ccc(NCC5CCOCC5)c([N+](=O)[O-])c4)c(Oc4cnc5[nH]ccc5c4)c3)CC2)=C(c2ccc(Cl)cc2)C1 + CC(Nc1ncnc2nc[nH]c12)c1cc2cccc(Cl)c2c(=O)n1-c1ccccc1
6.18 µM: IC50 (second compound 1 µM)
3.33 µM: IC50 (second compound 10 µM)
inactive: viability, T/C [1] 104% | viability, T/C [2] 96.9% | viability, T/C [3] 110% | viability, T/C [4] 102% | viability, T/C [5] 112% | viability, T/C [6] 33.9% | viability, T/C [7] 92.5% | viability, T/C [8] 92.1% | viability, T/C [9] 100% | viability, T/C [10] 107% | viability, T/C [11] 103% | viability, T/C [12] 26.6% | viability, T/C [13] 90.5% | viability, T/C [14] 99% | viability, T/C [15] 105% | viability, T/C [16] 98.2% | viability, T/C [17] 108% | viability, T/C [18] 37.1% | viability, T/C [19] 85.9% | viability, T/C [20] 86.6% | viability, T/C [21] 75.6% | viability, T/C [22] 92.4% | viability, T/C [23] 91.8% | viability, T/C [24] 23.7% | viability, T/C [25] 70% | viability, T/C [26] 64.7% | viability, T/C [27] 65.3% | viability, T/C [28] 66.6% | viability, T/C [29] 72.2% | viability, T/C [30] 27.7% | viability, T/C [31] 50.6% | viability, T/C [32] 50.4% | viability, T/C [33] 49.6% | viability, T/C [34] 50.5% | viability, T/C [35] 53.7% | viability, T/C [36] 28.4%
7.92 µM: IC50 (second compound 0.316 µM)
6.9 µM: IC50 (second compound 0.1 µM)
7.72 µM: IC50 (second compound 0.0316 µM)
5.26 µM: IC50 (second compound 3.16 µM)

CCCS(=O)(=O)Nc1ccc(F)c(C(=O)c2c[nH]c3ncc(-c4ccc(Cl)cc4)cc23)c1F + CC(Nc1ncnc2nc[nH]c12)c1cc2cccc(Cl)c2c(=O)n1-c1ccccc1
5.6 µM: IC50 (second compound 0.0316 µM)
4.67 µM: IC50 (second compound 0.316 µM)
3.79 µM: IC50 (second compound 1 µM)
1.93 µM: IC50 (second compound 3.16 µM)
inactive: viability, T/C [1] 114% | viability, T/C [2] 109% | viability, T/C [3] 102% | viability, T/C [4] 89.8% | viability, T/C [5] 66.8% | viability, T/C [6] 32.7% | viability, T/C [7] 113% | viability, T/C [8] 108% | viability, T/C [9] 96.5% | viability, T/C [10] 82.8% | viability, T/C [11] 61.2% | viability, T/C [12] 34.5% | viability, T/C [13] 85.8% | viability, T/C [14] 95.3% | viability, T/C [15] 99.2% | viability, T/C [16] 79.4% | viability, T/C [17] 60.1% | viability, T/C [18] 32.3% | viability, T/C [19] 95.5% | viability, T/C [20] 82.9% | viability, T/C [21] 77.4% | viability, T/C [22] 71.9% | viability, T/C [23] 54.4% | viability, T/C [24] 30.5% | viability, T/C [25] 68.4% | viability, T/C [26] 70.9% | viability, T/C [27] 67.2% | viability, T/C [28] 56.5% | viability, T/C [29] 44.6% | viability, T/C [30] 26.4% | viability, T/C [31] 52.8% | viability, T/C [32] 55% | viability, T/C [33] 52.1% | viability, T/C [34] 43.3% | viability, T/C [35] 37.7% | viability, T/C [36] 23%
0.372 µM: IC50 (second compound 10 µM)
5.14 µM: IC50 (second compound 0.1 µM)

CNC(=O)c1ccc(N2C(=S)N(c3ccc(C#N)c(C(F)(F)F)c3)C(=O)C2(C)C)cc1F + CC(Nc1ncnc2nc[nH]c12)c1cc2cccc(Cl)c2c(=O)n1-c1ccccc1
0.0897 µM: IC50 (second compound 10 µM)
> 10 µM: IC50 (second compound 0.0316 µM) | IC50 (second compound 0.1 µM) | IC50 (second compound 0.316 µM) | IC50 (second compound 1 µM) | IC50 (second compound 3.16 µM)
inactive: viability, T/C [1] 101% | viability, T/C [2] 110% | viability, T/C [3] 102% | viability, T/C [4] 94% | viability, T/C [5] 97.5% | viability, T/C [6] 70.3% | viability, T/C [7] 93% | viability, T/C [8] 96% | viability, T/C [9] 105% | viability, T/C [10] 101% | viability, T/C [11] 95.7% | viability, T/C [12] 79.9% | viability, T/C [13] 89% | viability, T/C [14] 96.8% | viability, T/C [15] 91.1% | viability, T/C [16] 99.2% | viability, T/C [17] 85.5% | viability, T/C [18] 72.9% | viability, T/C [19] 81.2% | viability, T/C [20] 84.1% | viability, T/C [21] 75.4% | viability, T/C [22] 77.2% | viability, T/C [23] 76.3% | viability, T/C [24] 64.1% | viability, T/C [25] 61.4% | viability, T/C [26] 59.5% | viability, T/C [27] 63.1% | viability, T/C [28] 61.4% | viability, T/C [29] 62.3% | viability, T/C [30] 51% | viability, T/C [31] 49.5% | viability, T/C [32] 51.6% | viability, T/C [33] 47.3% | viability, T/C [34] 49.4% | viability, T/C [35] 42.3% | viability, T/C [36] 39.7%
